Test results as given in US4876266A, “1-aralkyl-2-mercaptoimidazolines as DBH inhibitors” (SmithKline Beckman Corporation, priority 1987, dated 1989).

Tests used:
DBH = conditions: significance of the observation is uncertain; cited from earlier work
[1] = molecular target: T1, dopamine-β-hydroxylase (DBH) (Bos taurus, UniProt P15101); experiment: in vitro DBH inhibition, conversion of tyramine to octopamine in the presence of DBH, spectrophotometric absorbance at 330 nm; assay type: biochemical; conditions: concentration of compound at which DBH activity was halved
T1 sequence (P15101 1-610): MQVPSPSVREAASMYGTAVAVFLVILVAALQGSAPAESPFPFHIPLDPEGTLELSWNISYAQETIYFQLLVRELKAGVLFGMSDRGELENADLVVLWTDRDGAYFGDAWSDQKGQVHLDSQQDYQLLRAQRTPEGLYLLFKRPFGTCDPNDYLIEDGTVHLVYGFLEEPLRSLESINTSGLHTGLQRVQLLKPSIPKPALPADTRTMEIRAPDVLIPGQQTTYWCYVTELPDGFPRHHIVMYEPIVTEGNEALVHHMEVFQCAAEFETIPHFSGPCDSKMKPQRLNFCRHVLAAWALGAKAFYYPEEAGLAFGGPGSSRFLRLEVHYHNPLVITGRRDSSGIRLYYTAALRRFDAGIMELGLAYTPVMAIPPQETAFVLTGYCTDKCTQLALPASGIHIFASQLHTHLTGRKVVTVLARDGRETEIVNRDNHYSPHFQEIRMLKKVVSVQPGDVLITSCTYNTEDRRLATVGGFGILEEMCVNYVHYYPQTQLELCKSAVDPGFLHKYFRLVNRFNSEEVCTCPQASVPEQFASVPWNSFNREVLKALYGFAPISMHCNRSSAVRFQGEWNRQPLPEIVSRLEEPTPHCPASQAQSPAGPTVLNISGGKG
Experimental: Listed in Table III are the compounds of the invention that were tested for in vitro DBH inhibition by a standard procedure for assaying conversion of tyramine to octopamine in the presence of DBH. J. J. Pisano, et al., Biochim. Biophys. Acta, 43, 566-568 (1960). Octopamine was assayed following sodium periodate oxidation to p-hydroxybenzaldehyde by measuring spectrophotometric absorbance at 330 nm.

[2] = test system: spontaneously hypertensive rats; experiment: mean arterial blood pressure in spontaneously hypertensive rats, indwelling cannulae in the tail arteries; assay type: in vivo, rat; conditions: 50 mg/kg orally; within approximately
Experimental: Further, spontaneously hypertensive rats were treated with a suspension or solution of 1-(3,5-difluorobenzyl)-2-mercaptoimidazoline at a dose of 50 mg/kg orally and mean arterial blood pressure was monitored for 260 minutes using indwelling cannulae in the tail arteries. […] Maximum blood pressure reduction was approximately 15 to 20 mm Hg.

Row | Structure (SMILES) | DBH levels in treated patients (DBH) | IC50 [1] [µM] | time after treatment to significant blood pressure reductions [2] [min]
1 | CC(N)(Cc1ccc(O)c(O)c1)C(=O)O (stereo not drawn) [alpha-methyl-DOPA] | lowered DBH levels | – | –
2 | COC(=O)[C@H]1[C@H]2C[C@@H]3c4[nH]c5cc(OC)ccc5c4CCN3C[C@H]2C[C@@H](OC(=O)c2cc(OC)c(OC)c(OC)c2)[C@@H]1OC [reserpine] | lowered DBH levels | – | –
3 | Fc1cc(F)cc(CN2CCN=C2S)c1 [1-(3,5-Difluorobenzyl)-2-mercaptoimidazoline] | – | 1.2 | ≤ 30
4 | S=C1NCCN1Cc1ccccc1 [1-Benzyl-2-mercaptoimidazoline] | – | 10 | –
